# [ ]: non-standard residue; d: D form. Aib = CC(C)(N)C(=O)O
# What was measured:
# [1] = Stability in bovine serum, read out as inhibition of HT1080 migration (xCELLigence); type: in vitro ADME; conditions: pre-incubated at 10^−3 M in bovine serum 18 hr at 37 °C, tested at 10 nM on HT1080 migration 18 hr, quadruplicate
# Method: A major limitation of peptides for use as therapeutics is susceptibility to degradation by serum proteases. The stability of RI-3 in bovine and human serum was investigated by comparing inhibitory activities of RI-3 and RI-3 pre-incubated at 10^−3 M with serum for 18 hr at 37 °C on cell migration and invasion. HT1080 cells were allowed to migrate for 18 hr toward DMEM (CTRL), 10% FBS (None), 10% FBS plus 10 nM RI-3 or 10% FBS with 10 nM RI-3 pre-incubated in bovine serum. […] The stability of RI-3 in human serum was investigated in cell invasion experiments performed in Boyden chambers. […]
# (a) HT1080 cells were allowed to migrate in real time for 18 hr toward DMEM (CTRL), or 10% FBS in the absence (None) or the presence of 10 nM RI-3 or 10 nM RI-3 pre-incubated at 10^−3 M in bovine serum for 18 hr at 37 °C. […] The basal value assessed in the absence of FBS (CTRL) was taken as 100% and all values were reported relative to that. Data are the means ± SD three independent experiments, performed in triplicate. *Indicates statistical significance calculated against None, with *P < 0.05, **P < 0.0001. (c) Cell proliferation of HT1080 cells assessed by MTS assay. […] At the indicated times, the absorbance of adherent cells was assessed with a microplate reader. […]
# [2] = tested on: osteosarcoma Saos-2 cells; assay: Matrigel invasion kinetics, xCELLigence RTCA, Saos-2; type: cell-based, human; conditions: Saos-2, 10 nM, 10% FBS, 20 hr
# Method: This assay was performed using E-well plates and the xCELLigence RTCA technology as described. Bottom wells were coated with 20 µg/well matrigel diluted in serum free medium. Matrigel was allowed to polymerize for 1 hr at 37 °C prior to seeding cells (1 × 10^4 cells/well) suspended in growth medium plus/minus RI peptides. Cells that cross matrigel adhere to the bottom of plates causing impedance changes that are proportional to the number of invading cells, and are expressed as a cell index value. Matrigel invasion was monitored for 20 hr. The experiments were performed three times in quadruplicate.
# HUVECs = assay: Endothelial cell tube formation on matrigel; type: cell-based, human; conditions: 10 nM, three experiments in duplicate
# Method: The formation of vascular-like structures was assessed on a matrigel basement membrane matrix preparation. HUVEC (4 × 10^4 cells/well) were suspended in 300 µl pre-warmed serum-free medium. Diluents or effectors were added to the cell suspension prior to seeding cells on polymerized growth factor-reduced matrigel (100 µl/well) (Becton Dickinson). Assays were carried out for 6 hr at 37 °C in humidified air with 5% CO2 as described. To quantify tube formation, five random areas/well at 100× magnification were imaged and the number of tubes formed by cord-like structures exceeding 100 μm in length, measured using Axiovision 4.4 software (Carl Zeiss), were counted. The experiments were performed three times in duplicate.
substance,measurement,setting,value
Ac-[dY][dR][Aib][dR]-NH2 (SMILES CC(=O)N[C@H](Cc1ccc(O)cc1)C(=O)N[C@H](CCCNC(=N)N)C(=O)NC(C)(C)C(=O)N[C@H](CCCNC(=N)N)C(N)=O) [RI-3],"cell index curves of migrating cells, peptide vs peptide pre-incubated in bovine serum",[1],overlapping curves
same,reduction of matrigel invasion (slope of cell index),[2],24%
same,reduction of VEGF-dependent endothelial capillary-like structures,"HUVECs; EBM plus 40 ng/mL VEGF165, 6 hr on matrigel",75%
same,reduction of FBS-dependent endothelial capillary-like structures,"HUVECs; EBM plus 10% FBS, 6 hr on matrigel",61%

# Reference: publication PMC5430962, “Retro-inverso Urokinase Receptor Antagonists for the Treatment of Metastatic Sarcomas” (Scientific Reports, 2017)
